Test results from patent publication US12226380B2, “Method of regulating immunity in the intestines” (Monell Chemical Senses Center, priority 2016, dated 2025).

How the values were obtained:
[1] = tested on: N. brasiliensis or Helgomosomoides polygyrus; details: mice with free access to 100 mM succinate, infected with intestinal parasites, up to two weeks post-infection; anticipated
Procedure: For treatment of parasitic infection, mice are provided with free access to a drinking sprout containing 100 mM succinate (or other SucnR1 agonist) or plain water. Mice are then infected with intestinal parasites, such as N. brasiliensis or Helgomosomoides polygyrus. Mice are examined for the presence of worm (worm burden) in the small intestine, caecum, as well as feces for up to two weeks post-infection.
Similarly, the feces is examined for the presence of parasitic eggs.

[2] = tested on: DSS-induced colitis; details: DSS-treated mice, 100 mM succinate in drinking water vs plain water; anticipated
Procedure: Mice are treated with DSS to induce intestinal damage. Mice are then provided with a drinking sprout containing 100 mM succinate or plain water. Gut tissue is collected and evaluated for the clinical and histological changes.

O=C(O)CCC(=O)O [succinate]
expelling of helminths (worm burden) [1]: expedited expelling of helminths from the body
clinical outcome (clinical and histological changes of gut tissue) [2]: better clinical outcome
